Measurements: PubChem BioAssay (NCI)
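Compound exposure: 48 hours, 5 concentrations, 96-well plates. At the GI50, growth is halved. TGI is the concentration that stops growth completely.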

Legend:
Assay in all cases: NCI-60 cell line screen, 48 h
[1] = system: SF-268 CNS
[2] = system: HCC-2998 colon
[3] = system: SN12C renal
[4] = system: T-47D breast
[5] = system: CCRF-CEM leukemia
[6] = system: MDA-MB-231 breast
[7] = system: HCT-15 colon
[8] = system: HOP-92 NSCLC
[9] = system: U251 CNS
[10] = system: NCI-H23 lung
[11] = system: SR leukemia
[12] = system: MDA-MB-435
[13] = system: 786-0 renal
[14] = system: OVCAR-4 ovarian
[15] = system: SK-MEL-2 melanoma
[16] = system: K-562 leukemia
[17] = system: MCF7 breast
[18] = system: EKVX NSCLC
[19] = system: SNB-75 CNS
[20] = system: NCI-H522 lung
[21] = system: M14 melanoma
[22] = system: NCI/ADR-RES ovarian
[23] = system: SNB-19 CNS
[24] = system: MALME-3M melanoma
[25] = system: KM12 colon
[26] = system: MOLT-4 leukemia
[27] = system: CAKI-1 renal
[28] = system: NCI-H226 lung
[29] = system: SK-MEL-28 melanoma
[30] = system: HOP-62 NSCLC
[31] = system: HCT-116 colon
[32] = system: BT-549 breast
[33] = system: SK-OV-3 ovarian
[34] = system: SF-539 CNS
[35] = system: A498 renal
[36] = system: UACC-257 melanoma
[37] = system: LOX IMVI melanoma
[38] = system: ACHN renal
[39] = system: HL-60(TB) leukemia
[40] = system: HS 578T breast
[41] = system: RXF 393 renal
[42] = system: HT29 colon
[43] = system: SK-MEL-5 melanoma
[44] = system: A549 NSCLC
[45] = system: OVCAR-5 ovarian
[46] = system: RPMI-8226 leukemia
[47] = system: TK-10 renal
[48] = system: SW-620 colon
[49] = system: DU-145 prostate
[50] = system: MDA-MB-468 breast
[51] = system: OVCAR-3 ovarian
[52] = system: SF-295 CNS
[53] = system: PC-3 prostate
[54] = system: NCI-H460 lung
[55] = system: UACC-62 melanoma
[56] = system: UO-31 renal
[57] = system: OVCAR-8 ovarian
[58] = system: IGROV1 ovarian

## CCCS(=O)(=O)c1oc(-c2ccc(F)cc2)nc1S(=O)(=O)c1ccc(F)cc1
[1]
  GI50: 3.18 µM
  TGI: 14.7 µM
[2]
  GI50: 4.05 µM
  TGI: 15.9 µM
[3]
  GI50: 2.62 µM
  TGI: 9.51 µM
[4]
  GI50: 1.83 µM
  TGI: 4.2 µM
[5]
  GI50: 0.298 µM
  TGI: 1.09 µM
[6]
  GI50: 1.65 µM
  TGI: 3.04 µM
[7]
  GI50: 1.22 µM
  TGI: 2.73 µM
[8]
  GI50: 1.8 µM
  TGI: 4.08 µM
[9]
  GI50: 16.4 µM
  TGI: 30.6 µM
[10]
  GI50: 1.9 µM
  TGI: 4.22 µM
[11]
  GI50: 1.6 µM
  TGI: > 100 µM
[12]
  GI50: 1.45 µM
  TGI: 2.98 µM
[13]
  GI50: 1.6 µM
  TGI: 3.1 µM
[14]
  GI50: 1.86 µM
  TGI: 4.04 µM
[15]
  GI50: 10.4 µM
  TGI: 22.7 µM
[16]
  GI50: 1.64 µM
  TGI: > 100 µM
[17]
  GI50: 1.3 µM
  TGI: 3.08 µM
[18]
  GI50: 1.62 µM
  TGI: 3.27 µM
[19]
  GI50: 4.23 µM
  TGI: 18.4 µM
[20]
  GI50: 1.19 µM
  TGI: 2.64 µM
[21]
  GI50: 1.68 µM
  TGI: 3.56 µM
[22]
  GI50: 2.36 µM
  TGI: 6.35 µM
[23]
  GI50: 15 µM
  TGI: 28.2 µM
[24]
  GI50: 1.49 µM
  TGI: 2.83 µM
[25]
  GI50: 14.5 µM
  TGI: 31 µM
[26]
  GI50: 1.14 µM
  TGI: > 100 µM
[27]
  GI50: 1.43 µM
  TGI: 2.76 µM
[28]
  GI50: 13 µM
  TGI: 34.8 µM
[29]
  GI50: 1.74 µM
  TGI: 3.17 µM
[30]
  GI50: 15.7 µM
  TGI: 31.1 µM
[31]
  GI50: 1.6 µM
  TGI: 3.49 µM
[32]
  GI50: 1.98 µM
  TGI: 3.57 µM
[33]
  GI50: 16.3 µM
  TGI: 30.9 µM
[34]
  GI50: 1.55 µM
  TGI: 2.89 µM
[35]
  GI50: 17.2 µM
  TGI: 31 µM
[36]
  GI50: 1.62 µM
  TGI: 3.13 µM
[37]
  GI50: 1.28 µM
  TGI: 2.6 µM
[38]
  GI50: 1.61 µM
  TGI: 2.96 µM
[39]
  GI50: 2.17 µM
  TGI: > 100 µM
[40]
  GI50: 2.33 µM
  TGI: 7.43 µM
[41]
  GI50: 1.1 µM
  TGI: 2.44 µM
[42]
  GI50: 2.06 µM
  TGI: 4.9 µM
[43]
  GI50: 3.32 µM
  TGI: 12 µM
[44]
  GI50: 13.3 µM
  TGI: 30.6 µM
[45]
  GI50: 3.48 µM
  TGI: 13.7 µM
[46]
  GI50: 2.22 µM
  TGI: 7.44 µM
[47]
  GI50: 1.88 µM
  TGI: 3.35 µM
[48]
  GI50: 0.685 µM
  TGI: 2.17 µM
[49]
  GI50: 1.59 µM
  TGI: 2.96 µM
[50]
  GI50: 1.29 µM
  TGI: 2.89 µM
[51]
  GI50: 1.35 µM
  TGI: 2.77 µM
[52]
  GI50: 12.6 µM
  TGI: 25.5 µM
[53]
  GI50: 3.51 µM
  TGI: 16.7 µM
[54]
  GI50: 4.46 µM
  TGI: 19.4 µM
[55]
  GI50: 1.68 µM
  TGI: 3.11 µM
[56]
  GI50: 1.46 µM
  TGI: 2.78 µM
[57]
  GI50: 2.12 µM
  TGI: 4.99 µM
[58]
  GI50: 1.84 µM
  TGI: 3.84 µM
